Key:
[1] = test system: CEM-VCR 3/D5 human T-lymphoblastic leukemia, vincristin resistant; test: MTT cytotoxicity assay, CEM-VCR 3/D5; type: cell-based; conditions: 72 hours, read-out: TCS50
Text: (§1) One of the parameters used as the basis for colorimetric assays is the metabolic activity of viable cells. For example, a microtiter assay which uses the tetrazolium salt MTT is now widely used to quantitate cell proliferation and cytotoxicity [Hajdúch M, Mihál V, Minarík J, Fáber E, Safárová M, Weigl E, Antálek P.: Cytotechnology, 1996, 19, 243–245]. For instance, this assay is used in drug screening programs and in chemosensitivity testing. Because tetrazolium salts are cleaved only by metabolically active cells, these assays exclusively detect viable cells. In the case of the MTT assay, yellow soluble tetrazolium salt is reduced to a coloured water-insoluble formazan salt. After it is solubilized, the formazan formed can easily and rapidly be quantified in a conventional ELISA plate reader at 570 nm (maximum absorbancy). The quantity of reduced formazan corresponds to the number of vital cells in the culture. […]
(§2) The cell suspensions that were prepared and diluted according to the particular cell type and the expected target cell density (2,500–30,000 cells per well based on cell growth characteristics) were added by pipette (80 μl) into 96/well microtiter plates. […] Usually, test compounds were evaluated at six 4-fold dilutions. […] The tumour cell survival (TCS) was calculated using the following equitation: TCS=(ODdrug exposed well/mean ODcontrol wells)×100%. […]

[2] = test system: Rb protein; test: Rb protein phosphorylation state, SDS-PAGE/Western blot in CEM cells; type: cell-based, human
Experimental: Since Rb protein contains multiple phosphorylation sites for CDKs, its phosphorylated form has molecular weight about 110 kDa, while the molecular weight of hypophosphorylated protein is only 105 kDa This small difference in molecular weight is enough to separate both forms by conventional SDS-PAGE electrophoresis.
CEM cells were cultured in Dulbeco's modified essential medium with 4.5 g dextrose/l, 10% of foetal calf serum, 2 mM glutamine, 100 U/ml penicillin and 100 μg/ml streptomycin with/without below indicated concentrations of betulkic acid (BA) or I.3. At selected time points, cells were harvested, washed in ice cold Hank's balanced salt solution and solubilized on ice using the SDS-PAGE sample buffer containing protease and phosphatase inhibitors (10 μg/ml of leupeptin, 10 μg/ml of aprotinin, 10 μg/ml of soybean trypsin inhibitor, 100 μmol of benzamide, 1 mM of sodium vanadate, 1 mM of NaF, 1 mM of phenylphosphate) and boiled immediately.
Total cellular proteins (100 μg/well) were separated on SDS-PAGE electrophoresis, blotted on polyvinyldifluoride membranes and total Rb protein, including proteolytic fragment(s) were detected using a pRb monoclonal antibody (Oncogene, Germany, Rb(AS5), Cat# OP66 Rev 2 Sep. 1996 EB, Clone LM95.1) and visualized by chemilumniuscence (ECL-Westeg Blotting System, Amersham). Details of the Western blot technique are described in Ausubel, F. M., Brent, R., Kingston, P E., Moore, D. D., Seidman, J. G., Smith, J. A., Struhl, K (Eds): Short Protocols-in Molecular Biology, 2nd edition, John Wiley & Sons, New York, Chichester, Brisbane, Toronto, Singapore, 1992, page 10–33–10–35.

[3] = test system: human SK-N-AS neuroblastoma; test: In vivo activity in xenotransplanted human neuroblastoma; set-up: species or system CD-1/Ctrl-1 nu/nu nude female mice; conditions: I.3 1 or 2 mg/mouse s.c. or i.p., 3×D1,2,5,6,9,10; SK-N-AS in nude mice (FIG. 2)
Experimental: Human neuroblastoma SK-N-AS cell line was obtained from ATTC. The line was cultured in Dulbeco's modified essential medium with 4.5 g dextrose/l, 10% of foetal calf serum, 2 mM glutamine, 100 U/ml penicillin and […] streptomycin. For transplantation purposes, only the cells in log phase were used.
CD-1/Ctrl-1 nu/nu nude female mice, 8 weeks old, 18–22 g weight were used in this study (IffaCredo, France). Animals were inoculated with 5.10^6 tumour cells subcutaneously into right inquinal region. Following transplantation, tumor growth was measured in both the control/vehicle and the treated groups using calipers. Tumor volume (TV) was calculated as follows: TV=(a^2×b)/2, where a is width and b is length The statistical significance was evaluated using a […].
Cisplatin (Platidiam 10 inj, sicc., Lachema, Czech Republic) was used as a control drug in this experiment. It was diluted in apyrogenic water and applied to animals in a final volume of 0.18 ml subcutaneously at day 1.
I.3 was synthesised as described above. It was suspended at 10 mg/ml in 5% dextrose and pH was adjusted to 8.0 with sodium hydroxide. vehicle: 5% dextrose with pH adjusted to 8.0 with sodium hydroxide. […]

[4] = test system: K562-ARA-C human promyelocytic leukemia, cytarabin resistant; test: MTT cytotoxicity assay, K562-ARA-C; type: cell-based; conditions: 72 hours, read-out: TCS50
Text: as §1, §2

## CC(=O)OC[C@@]1(C(=O)O)CC[C@]2(C)[C@H](CC[C@@H]3[C@@]4(C)CC[C@H](OC(C)=O)C(C)(C)[C@@H]4CC[C@]32C)C1=O [I.3, 3β,28-diacetoxy-18-oxo-19,20,21,29,30-pentanorlupan-22-oic acid]
[1]
  IC50: 2900 nM
[2]; 7 μM
  time to appearance of hypophosphorylated form of Rb: 2 h
[2]; 20 μM
  time to appearance of hypophosphorylated form of Rb: 0.25 h
[2]; Western blot
  cleavage of Rb protein (42 kDa fragment, caspase activation): time and concentration dependent appearance of an immunoreactive fragment of Rb protein
[2]; Western blot (FIG. 3)
  dephosphorylation of Rb protein (shift 110 kDa to 105 kDa): rapidly dephosphorylated
[3]
  tumor growth (tumor volume): no tumor growth
[4]
  IC50: 600 nM

Source: patent publication US7041701B2, “Triterpenoid derivatives” (Univerzita Palackeho V Olomouci, priority 2000, dated 2006)
